Measurements taken from the NIST ThermoML archive (doi:10.1021/je9001575).

Experiments:
[1] = Molar enthalpy of transition or fusion; conditions: Crystal; Adiabatic calorimetry
[2] = molar heat capacity at constant volume; conditions: Liquid, Vacuum adiabatic calorimetry

CC(C)C [2-methylpropane]
Conditions	Molar enthalpy of transition or fusion [kcal/mol]
[1]	1.074

[2]
Conditions	molar heat capacity at constant volume [J/K/mol]
119.82 K, 6500 kPa	71.22
122.33 K, 10732 kPa	71.61
124.97 K, 15325 kPa	72.14
127.43 K, 20667 kPa	72.63
130.02 K, 25536 kPa	73.32
132.43 K, 28973 kPa	73.82
141.37 K, 4922 kPa	73.32
143.72 K, 9088 kPa	73.74
146.26 K, 13401 kPa	74.25
148.59 K, 17196 kPa	74.72
151.09 K, 21305 kPa	75.18
153.38 K, 24872 kPa	75.69
155.84 K, 28673 kPa	76.28
162.3 K, 4549 kPa	75.71
164.6 K, 8126 kPa	76.26
167.03 K, 11587 kPa	76.59
169.29 K, 14798 kPa	77.08
171.69 K, 18296 kPa	77.43
173.93 K, 21461 kPa	78.06
176.29 K, 24825 kPa	78.43
178.5 K, 27869 kPa	78.99
180.83 K, 31062 kPa	79.8
183.24 K, 4049 kPa	78.07
185.45 K, 6869 kPa	78.63
187.83 K, 9994 kPa	79.02
190.01 K, 12743 kPa	79.62
192.38 K, 15769 kPa	79.81
194.51 K, 18415 kPa	80.61
196.86 K, 21369 kPa	81.16
198.97 K, 23939 kPa	81.69
201.31 K, 26822 kPa	81.98
203.38 K, 29282 kPa	82.49
203.62 K, 3700 kPa	80.96
205.69 K, 32085 kPa	83.13
205.82 K, 6192 kPa	81.19
208.09 K, 8785 kPa	82.04
210.26 K, 11205 kPa	82.36
212.53 K, 13758 kPa	83
214.66 K, 16095 kPa	83.42
216.92 K, 18597 kPa	83.89
219.02 K, 20866 kPa	84.44
221.26 K, 23313 kPa	85
223.33 K, 25507 kPa	85.63
224.21 K, 3209 kPa	84.09
225.57 K, 27916 kPa	85.85
226.5 K, 5490 kPa	84.53
227.6 K, 30036 kPa	86.44
228.59 K, 7563 kPa	85.18
229.83 K, 32388 kPa	86.73
230.86 K, 9783 kPa	85.57
232.95 K, 11833 kPa	86.15
235.18 K, 13991 kPa	86.65
237.26 K, 16001 kPa	87.31
239.46 K, 18103 kPa	87.79
241.54 K, 20084 kPa	88.35
243.72 K, 22131 kPa	88.62
244.91 K, 2940 kPa	87.7
245.77 K, 24074 kPa	89.4
246.88 K, 4626 kPa	88.13
247.92 K, 26062 kPa	89.81
249.24 K, 6667 kPa	88.84
249.98 K, 27977 kPa	90.18
251.17 K, 8311 kPa	89.23
252.11 K, 29918 kPa	91.01
253.54 K, 10334 kPa	89.74
254.15 K, 31797 kPa	91.18
255.44 K, 11931 kPa	90.33
257.8 K, 13926 kPa	90.58
259.68 K, 15488 kPa	91.3
262.03 K, 17452 kPa	91.98
263.88 K, 18974 kPa	92.4
264.62 K, 2580 kPa	91.58
266.23 K, 20919 kPa	93.11
266.61 K, 4054 kPa	92.14
268.06 K, 22404 kPa	93.8
268.91 K, 5781 kPa	92.42
270.4 K, 24318 kPa	94.15
270.88 K, 7235 kPa	92.99
272.22 K, 25772 kPa	94.9
273.17 K, 8940 kPa	93.07
274.56 K, 27659 kPa	95.07
275.12 K, 10363 kPa	94.06
276.36 K, 29087 kPa	95.35
277.4 K, 12047 kPa	94.2
278.68 K, 30942 kPa	95.99
